Data as given in patent publication US20250179481A1, “COMPOSITIONS AND METHODS FOR TARGETING, EDITING, OR MODIFYING GENES” (Celyntra Therapeutics SA, priority 2021, published 2025).

How the values were obtained:
AAVS1 = test: CAR insertion efficiency at AAVS1 in primary T-cells; type: cell-based, human
Experimental: T-cells were isolated from human peripheral blood obtained from healthy adults by immune-magnetic negative selection using the EasySep Human T-cell Isolation Kit ([sequence] Technologies). After isolation, T-cells were activated in 25 μL mL^−1 ImmunoCult Human CD3/CD28/CD2 T-Cell Activator ([sequence] Technologies) in ImmunoCult-XF T-Cell Expansion Medium ([sequence] Technologies) containing 12.5 ng mL^−1 Human Recombinant IL-2, 5 ng mL^−1 IL-7, and 5 ng mL^−1 IL-15 ([sequence] Technologies) and seeded at 1.0×10^6 cells mL^−1. Until transfection 48 hours later, the cells were cultured at 37° C., in 5% CO2 incubators.
Donor templates comprising site-specific homology arms, respective promoter, and respective gene (GFP or Hu19 scFv-CD8a-CD28-CD3ζ CAR) were amplified from corresponding pTwist Ampicillin high-copy plasmids (Twist Bioscience) using homology arms-specific PCR primers. […] Purified HDR templates were collected and quantified on NanoDrop One Microvolume UV-Vis Spectrophotometer (ThermoFisher Scientific). […] HDR templates were collected, diluted, and concentrations quantified using Qubit dsDNA HS Assay Kit (ThermoFisher Scientific). […]

[1] = tested on: predicted off-target sites; test: INDEL frequency at predicted off-target sites (CasOFFinder, targeted deep sequencing) in Jurkat cells; type: cell-based, human; conditions: crPDCD1: <=4 mismatches, remaining gNAs <=3 mismatches, vs MOCK, Pairwise T-test
Experimental: Another consideration for selecting gNAs is the potential for off-target cleavage events. The list of validated gNAs was analyzed using the CasOFFinder software to predict potential off-target editing sites in the genome with up to four mismatches between the gNA and the target DNA sequence. Using the Bioconductor R packages, the predicted off-target sites were matched with the human gene database, and those sites that targeted exons and introns within the genes were extracted. Afterwards, the degree of editing activity at these sites was examined by targeted next-generation sequencing, more specifically, at 25 predicted off-target sites for the top-two PDCD1 gNAs, i.e., crPDCD1_1 and crPDCD1_2. […] INDEL frequency at 43 putative off-target sites with up to three mismatches between gNA and target DNA sequence were assayed for the top-two gNAs targeting seven remaining genes (i.e., TIM3, LAG3, TIG1T, CTLA4, PTPN6, PTPN11, and CD247; spacer sequences in Table 5). […] Specifically. FIGS. 18-19 show INDEL frequency of MAD7 (n=3; Mean±SD) in T-cell leukemic cell line at predicted off-target sites analyzed by targeted deep sequencing. For crPDCD1. INDEL frequency was analyzed at the putative off-target editing sites with ≤4 mismatches between the gNA and target DNA sequence, and with ≤3 mismatches on the remaining gNAs.

primary Pan-T donors = conditions: primary Pan-T cells, RNP + ssODN, M3814 for 24 hours after transfection
Experimental: The targeted ssODN template (Table 11) was transfected with RNPs in three primary Pan-T donors. Cell pools were harvested post recovery for genotypic evaluation (i.e. modification incorporation via NGS) and also functional analysis (FACS staining).
Conditions were the same as Example 1, and in addition after transfection the cells were treated with the HDR enhancer M3814 for 24 hours to block the NHEJ pathway and 5 thereby increase the incorporation of the ssODN at the on-target side.

AAVS1 locus = test: INDEL frequency at the AAVS1 locus in Jurkat cells; type: cell-based, human; conditions: MAD7 RNP
Source text: The Jurkat T-cell leukemia cell line was used to evaluate the transgene insertion and expression efficiency using CRISPR-MAD7 RNP complexes. […] Specifically. […] Dark grey bars represent mean INDEL frequency using crAAVS1. Light grey bars represent mean modification frequency using crIDTneg (IDT). The HDR inserts comprised eight promoters (Table 4) differing in both size and promoter strength to drive GFP expression (FIG. 21). […] Specifically. […] HDR templates consisting of eight different promoters and flanked with symmetric homology arms of 500 base pairs in the amount of 0.5 μg μL^−1 were used. Size of promoters in base pairs: CMV, 1400; SCP, 970; CMVe-SCP, 1270; CMVmax, 1830; JET. 1100; CAG, 2600; PGK, 1410; EF-1a, 2090. Dark grey bars and circles present mean insertion frequency and cell viability using crAAVS1. Light grey bars represent mean insertion frequency and cell viability using crIDTneg (IDT).

CD247 = test: gNA validation: frameshift (ORF disruption) frequency, CD247; type: cell-based, human; conditions: Jurkat, CRISPResso2 ORF analysis
Experimental: (§1) Initial quality assessment of the obtained reads was performed with FastQC36. The sequencing data were aligned and analyzed with the CRISPResso2 software, using CRISPRessoBatch command with the parameters—cleavage_offset 1—quantification_window_size 10—quantification_window_center 1—expand_ambiguous_alignments for the INDEL frequency analysis. For the ORF disruption analysis, CRISPRessoBatch command with the parameters—cleavage_offset 1—coding_seq <EXON_SEQ>—quantification_window_size 0—quantification_window_center 1—expand_ambiguous_alignments was used. Modification rates from the CRISPResso2 software output were analyzed in Excel.
(§2) High-efficiency gNAs identified in our initial analysis were validated by assaying INDEL frequency for the top three or five gNAs for each of the selected immunologically relevant genes (FIG. 15). […] Alternating grey and white zones on the plot represent groups of three to five high-efficiency gNAs per locus. […] Using the CRISPresso2 software, the degree of open reading frame (ORF) disruption for each of the validated gNAs was estimated (FIG. 15). In addition, for four high-efficiency gNAs targeting three different exons at the PDCD1 locus, surface expression of the PDCD1 protein was measured by flow cytometry 4, 7, and 11 days post-transfection (data not shown).
(§3) Average fraction of INDELs leading to frameshifts (dashed line) is approx. 66%. […]

TIM3 = test: gNA validation: frameshift (ORF disruption) frequency, TIM3; type: cell-based, human; conditions: Jurkat, CRISPResso2 ORF analysis
Experimental: as §1, §2, §3

PDCD1 protein = test: Surface expression of the PDCD1 protein by flow cytometry in Jurkat cells; type: cell-based, human; conditions: flow cytometry 4, 7 and 11 days post-transfection, crPDCD1_2 value at day 4, same at day 11
Experimental: For detection of PDCD1 knock-out efficiency, approx. 250,000 Jurkat cells per sample were transferred onto 96-well V-bottom cell culture plates and assessed following a series of consecutive washing and staining steps. The first step included centrifuging the cells at 300 g for 5 minutes at 4° C., and discarding the supernatant. Afterwards, the cells were stained using 100 μL Cell Staining Buffer (Biolegend) with APC/Cyanine7 anti-human CD279 (PD-1) antibody (1:100: Biolegend) and incubated for 30 minutes at 4° C., in the dark. The cells were then centrifuged at 300 g for 5 minutes at 4° C., and the supernatant discarded. The next step included two repeats of centrifugation at 300 g for 5 minutes at 4° C., supernatant removal, and cell washing in 150 μL ice-cold Cell Staining Buffer (Biolegend). In the final step, the cells were re-suspended in 100 μL Cell Staining Buffer for the flow cytometry measurements (excitation: red laser; emission: […]).
as §2

[2] = tested on: PDCD1, TIM3, LAG3, TIG1T, CTLA4, PTPN6, PTPN11 and CD247; test: gNA screen: INDEL frequency at eight loci in Jurkat T-cell leukemia cell line; type: cell-based, human; conditions: gNAs adjacent to all YTTN PAM variants
Experimental: Ribonucleoprotein complexes (RNPs) were generated by incubating respective guide nucleic acids (gNAs) with MAD7 in the molar ratio of 3:2 gNA: MAD7 for 15 minutes at room temperature immediately before transfection. For Jurkat experiments, the RNP complexes were generated by mixing the respective gNA ([…]), MAD7 ([…]), and nuclease-free water, unless otherwise stated.
Lonza 4D Nucleofector with Shuttle unit (V4SC-2960 Nucleocuvette Strips) was used for transfection, following the manufacturer's instructions. […]
Extracted genomic DNA was quantified using the NanoDrop (ThermoFisher Scientific). […] The DNA was eluted from the beads with nuclease-free water and the size of the purified amplicons analyzed on a 2% agarose E-gel using the E-gel electrophoresis system (ThermoFisher Scientific). In the second PCR, unique pairs of Illumina-compatible indexes (Nextera XT Index Kit v2) were added to the amplicons using the KAPA HiFi HotStart Ready Mix (Roche). […] Sizes of the purified DNA fragments were validated on a 2% agarose gel using the E-gel electrophoresis system (ThermoFisher Scientific), quantified using Qubit dsDNA HS Assay Kit (Thermo Fisher) and then pooled in equimolar concentrations. […] The final library was sequenced on Illumina MiSeq System using the MiSeq Reagent Kit v.2 (300 cycles, […], paired-end reads). […]

poly-L-glutamic acid [PGA]
CAR insertion efficiency, treatment with PGA compared to without PGA (AAVS1; primary T-cells, P<=0.05, data not shown): higher

crPDCD1_1: top-two PDCD1 gNA (guide GCACGAAGCTCTCCGATGTGT; spacer only, further chemistry not given here)
INDEL frequency at predicted off-target sites [1]: No significant INDEL frequency

COc1ccc([C@@H](O)c2cc(-c3ncnc4cc(N5CCOCC5)ccc34)c(F)cc2Cl)nn1 [M3814]
more efficient CAR insertion than other experiments (AAVS1): ~5 times | increase in perfect HDR (primary Pan-T donors): 1.5 fold

crAAVS1: highly active gNA targeting the AAVS1 safe-harbor locus, spacer sequence in Table 5 (guide TTAGGATGGCCTTCTCCGACG; spacer only, further chemistry not given here)
INDEL frequency at the AAVS1 locus (AAVS1 locus): highly active

crCD247_4: validated high-efficiency gNA, CD247 (guide CTAGCAGAGAAGGAAGAACCC; spacer only, further chemistry not given here)
frameshifts frequency (fraction of frameshift to INDEL) (CD247): 97%

crTIM3_1: validated high-efficiency gNA, TIM3 (guide CTTGTAAGTAGTAGCAGCAGC; spacer only, further chemistry not given here)
frameshifts frequency (fraction of frameshift to INDEL) (TIM3): 23%

crPDCD1_2: gNA targeting the PDCD1 gene at the extracellular domain of the protein (guide TCTGCAGGGACAATAGGAGCC; spacer only, further chemistry not given here)
INDEL frequency at predicted off-target sites [1]: low-level off-target activity | surface expression of the PDCD1 protein (PDCD1 protein): 10%

MAD7: type V-A Cas nuclease, SEQ ID NO: 37
editing by PAM motif [2]: editing with all eight combinations of YTTN PAM
